# Laboratory results reported in patent publication US6187906A, “Methods to improve neural outcome” (Aukland Uniservices Limited, priority 1998, dated 2001).
# How the values were obtained:
# [1] = system: hypoxic-ischemic injury to one cerebral hemisphere; assay: Hypoxic-ischemic injury in adult rats, IGF-1 vs MK801 (Experiment 1); format: in vivo, Wistar rats; conditions: 50 μg IGF-1 intraventricular and/or 1 mg MK801, 2 hours after hypoxia; histology at 120 hours; controls 65%
# Procedure: Adult Wistar rats (68 280-320 g) were prepared under 3% halothane/O2 anaesthesia. The right side carotid artery was ligated. A guide cannula was placed on the dura 8.2 mm anterior from bregma and 1.4 mm from midline on the right. The rats were allowed to recover from anaesthesia for 1 hour and were then placed in an incubator with humidity 85±5% and temperature 34±0.5° C. for 1 hour before hypoxia. Oxygen concentration was reduced and maintained at 6±0.2 O2 % hypoxia for 10 minutes. […] The intraventricular injections of 50 μg IGF-1 or vehicle alone were made into the right lateral ventricle at 1 μl/minute under 1.5%-2% halothane anaesthetic. Rats in each treatment group were infused simultaneously. The rats had free access to food during experiment and were euthanized at 120 hours after hypoxia with overdose of sodium pentobarbitol. Briefly, the brain was perfused in-situ with FAM (Formaldehyde, Acetic Acid, Methanol 1:1:8) then paraffin embedded. The sections were stained with Thionin and Acid Fuchsin. The presence of cortical infarction, defined as a region of tissue death or parenchymal pan-necrosis due to death of glia as well as neurons, was determined via light microscopy by an assessor who was blinded to the experimental groupings.
# ischemic brain injury = assay: Ischemic brain injury in fetal sheep, postischemic seizures and neuronal loss (Experiment 2); format: in vivo
# Source text: The objective of this study was to compare the effects of treatment either with IGF-1 (see FIG. 2) and previously published work with the NMDA antagonist […] after an ischemic brain injury on postischemic seizures and neuronal losses in fetal sheep. (Tan et al Ann Neurol 32:677-682 (1992)).
# The methods were those of an earlier study (Tan et al Ann Neurol 32:677-682 (1992)). Briefly, late gestation fetal sheep were chronically instrumented to record EEG, nuchal activity and blood pressure, and were then returned to the uterus. Cortical EEG activity nuchal activity and blood pressure were recorded throughout he experiment and the fetal brain subjected to 30 minutes of ischemia. Two hours later they were treated by an infusion of either 1 μg IGF-1 (n=6) or vehicle (artificial CSF) (n=6) into the lateral ventricle. Five days later the brains were fixed and assessed for neuronal loss as described previously (Tan et al Ann Neurol 32:677-682 (1992)).
# In all cases the vehicle is the left-hand column and the effects of 1 μg of IGF-1 is on the right.
Compound,incidence of cortical infarction [1] [%],"neuronal rescue (neuronal loss scores) (ischemic brain injury; 1 μg IGF-1 into lateral ventricle 2 hours after 30 minutes of ischemia, assessed five days later)",postischemic seizure activity (ischemic brain injury; 1 μg IGF-1 into lateral ventricle 2 hours after ischemia)
insulin-like growth factor 1 [IGF-1],33,rescued neurons,did not suppress
"C[C@]12N[C@H](Cc3ccccc31)c1ccccc12 [MK801, reference compound]",50,–,–
